Experiments:
[1] = system: amphetamine (AMPH)-induced hyperactivity in rats; assay: Amphetamine-induced hyperactivity test (open field, model of mania); assay type: in vivo, male Wistar rats; conditions: RC-3095 0.1, 1.0 or 10.0 mg/kg i.p.
Experimental: Animals. A total of 120 male Wistar rats (age, 2.5-3 months; weight, 220-340 g) from an inhouse breeding colony were used. They were housed in plastic cages, 5 to a cage, with water and food freely available, under a 12-h light/dark cycle (lights on at 7:00 h). All experimental procedures were performed in accordance with the NIH Guide for the Care and Use of Laboratory Animals and the Brazilian Society for Neuroscience and Behavior (SBNeC) recommendations for animal care.
Drugs and pharmacological procedures. d-amphetamine (AMPH, 2.0 mg/kg) and RC-3095 (a gift from Dr. J. Engel, Zentaris GmbH, Germany) were dissolved in saline (SAL, 0.9% NaCl). All solutions were prepared immediately prior to administration. Animals were given a 10 ml/kg intraperitoneal (i.p.) injection of SAL or RC-3095 (0.1, 1.0 or 10.0 mg/kg) followed by an i.p. injection of SAL or AMPH […] 30 min later. Thus, the resulting experimental groups were: SAL/SAL; SAL/AMPH, RC-3095 0.1 mg/kg/AMPH, RC-3095 1.0 mg/kg/AMPH, RC-3095 10.0 mg/kg/AMPH, RC 3095 0.1 mg/kg/SAL; RC-3095 1.0 mg/kg/SAL; and RC-3095 10.0 mg/kg/SAL.
Hyperactivity test. […] Crossings of the black lines and rearings performed were counted. […]
Statistical analysis. All data are presented as mean±S.E.M. Differences among experimental groups were determined by ANOVA. […]

[2] = system: patient with rheumatoid arthritis; assay: Administration to a patient with rheumatoid arthritis; assay type: in vivo, human; conditions: 6 mg RC-3095 twice daily s.c.
Experimental: The composition consists of a white lyophilised cake in a 4 ml injection vial. One injection vial will be reconstituted with 2 ml water for injection.
A patient with rheumatoid arthritis, started on March 22 with 6 mg of RC-3095, twice daily. Application subcutaneously.
At baseline visit the patient presented with joint pain grade 3, joint inflammation grade 2 and depression grade 2.
Before start with RC-3095 they were already taken methotrexate, subcutaneously, once a week, and corticosteroids.
They were followed every two weeks by physical examination and laboratorial exams.

CC(C)C[C@@H](CN[C@@H](CC(C)C)C(N)=O)NC(=O)[C@H](Cc1c[nH]cn1)NC(=O)CNC(=O)[C@@H](NC(=O)[C@H](C)NC(=O)[C@H](Cc1c[nH]c2ccccc12)NC(=O)[C@H](CCC(N)=O)NC(=O)[C@H]1Cc2c([nH]c3ccccc23)CN1)C(C)C [RC-3095, H-D-Tpi-Gln-Trp-Ala-Val-Gly-His-Leu-psi-Leu-NH2]
other behavioral measures (sedation) [1]: did not alter
adverse events [2]: only local (nodes and pruritus)
